Structure (SMILES)	melting point [°C]
CCCc1ccnc2c(=O)[nH]c(-c3cc(S(=O)(=O)N4CCNCC4)ccc3OCC)nc12 [Example 3, 2-[2-Ethoxy-5-(1-piperazinylsulphonyl)phenyl]-8-n-propylpyrido[3,2-d]pyrimidin-4(3H)-one]	178 to 180
CCCc1ccnc2c(=O)[nH]c(-c3cc(S(=O)(=O)N4CCC(C(=O)OCC)CC4)ccc3OCC)nc12 [Example 4, 2-[2-Ethoxy-5-(4-ethoxycarbonylpiperidinosulphonyl)phenyl]-8-n-propylpyrido[3,2-d]pyrimidin-4(3H)-one]	204 to 205
CCCOc1ccccc1-c1nc2nc(SC)nnc2c(=O)[nH]1 [Example 79, 3-Methylthio-8-oxo-6-(2-propoxyphenyl)-7,8-dihydropyrimido[4,5-e][1,2,4]triazine]	247 to 249

Second part, the compound after the results:

melting point [°C]	Structure (SMILES)
216 to 219	CCCc1ccnc2c(=O)[nH]c(-c3cc(S(=O)(=O)NC)ccc3OCC)nc12 [Example 6, 2-[2-Ethoxy-5-(methylsulphamoyl)phenyl]-8-n-propylpyrido[3,2-d]pyrimidin-4(3H)-one]
195 to 197	CCCOc1ccccc1-c1nc2nnc(SC)nc2c(=O)[nH]1 [Example 75, 5,6-Dihydro-3-methylthio-5-oxo-7-(2-propoxyphenyl)pyrimido[5,4-e][1,2,4]triazine]

Reference: US6391885B1, “Method of treating a patient having precancerous lesions with phenyl cycloamino pyrimidinone derivatives” (Cell Pathways, Inc., priority 1995, dated 2002)
